From paper PMC10689081 (BMB Reports, 2023)
Entries after “also recorded” stand apart in the source; their conditions may differ.

Assays:
[1] = system: Mpro dimer; design: species or system SARS-CoV-2
[2] = Solubility in water; format: physicochemical; conditions: Supplementary Fig. 4
[3] = system: SARS-CoV-2 Mpro; format: biochemical
[4] = Superose-12 10/300, 0.5 ml/min, buffer D pH 7.5, 298 K (Fig. 1B)

SGFRKMAFPS [N10]
disruption of dimer conformation (conclusion in words) [1]: disrupted the dimer conformation
shift of Mpro dimer peak on adding N10 ([1]; Superose-12 10/300, 0.5 ml/min, 50 mM Tris-HCl pH 7.5, 1 M NaCl, 10% Glycerol, 1 mM DTT, 298 K (Fig. 1B)): shifted the Mpro dimer peak into a smaller size; also recorded: from dimer to a smaller size, a presumably monomer
height of the delayed shifted peak compared to the original peak [1, 4]: half-size in height
shape of the peak of Mpro with N10 [1, 4]: overlapped shape of two peaks of primary and shoulder; also recorded: overlapped uneven two peaks of primary and shoulder
solubility in water [2]: soluble in water
inhibition of Mpro activity (in words) ([3]; N10, 1 μM Mpro, 0-500 μM N10, 10 μM substrate, 298 K): also shows inhibitory activity; also recorded: can inhibit the Mpro activity; also recorded: could inhibit the proteolytic activity of Mpro
inhibitory activity of N10 compared with GC376 (in words) ([3]; sub-millimolar concentrations (Fig. 2B)): weaker than that of GC376
